Laboratory results published in ChEMBL document CHEMBL1155437, “Anti-infective discorhabdins from a deep-water alaskan sponge of the genus Latrunculia” (J Nat Prod, 2010).
Values after ≈ are worked out from the molar mass of the structure shown. Active and inactive are the calls of the source. No cut-off for these calls is given here.

Key:
Staphylococcus aureus = test: Antibacterial activity against methicillin-resistant Staphylococcus aureus by modified NCCLS method; format: functional, organism-based
[1] = tested on: Mycobacterium intracellulare; test: Antibacterial activity against Mycobacterium intracellular by after 4 days alamar blue assay; format: functional, organism-based
Mus musculus [2] = test: Toxicity in Plasmodium berghei infected mice (Mus musculus) assessed as mortality at 10 mg/kg, perorally or subcutaneously QD for 2 days measured on day 4; format: organism-based; set-up: dose 10 mg/kg, route oral; conditions: in vivo, po, 48 h
Mus musculus [3] = test: Toxicity in Plasmodium berghei infected mice (Mus musculus) assessed as loss of weight at 10 mg/kg, perorally or subcutaneously QD on day 1; format: organism-based; set-up: dose 10 mg/kg, route oral; conditions: in vivo, po
Mus musculus [4] = test: Toxicity in Plasmodium berghei infected mice (Mus musculus) at 10 mg/kg, perorally or subcutaneously administered 2 hrs post infection; format: organism-based; set-up: dose 10 mg/kg, route oral; conditions: in vivo, po
Plasmodium falciparum [5] = test: Antimalarial activity against chloroquine-sensitive Plasmodium falciparum D6 assessed as parasite LDH activity after 72 hrs by malstat reagent method; format: functional, organism-based; conditions: D6, 72 h
Vero = test: Cytotoxicity against african green monkey Vero cells by neutral red assay; format: cell-based; conditions: Chlorocebus sabaeus
[6] = Selectivity index, ratio of IC50 for african green monkey (Cercopithecus aethiops) Vero cells to IC50 for chloroquine-sensitive Plasmodium falciparum D6; format: toxicity, cell-based; conditions: read-out: Ratio IC50
[7] = tested on: Mycobacterium tuberculosis; test: Antituberculosis activity against Mycobacterium tuberculosis H37Rv after 4 days by alamar blue assay; format: functional, organism-based; conditions: 96 h
Plasmodium falciparum [8] = test: Antimalarial activity against chloroquine-resistant Plasmodium falciparum W2 assessed as parasite LDH activity after 72 hrs by malstat reagent method; format: functional, organism-based; conditions: W2, 72 h
[9] = Cytotoxicity against human HuH7 cells at 10 uM after 5 days by RT-PCR; format: cell-based; conditions: huh-7, 120 h
[10] = Selectivity index, ratio of IC50 for african green monkey (Cercopithecus aethiops) Vero cells to IC50 for chloroquine-resistant Plasmodium falciparum W2; format: toxicity, cell-based; conditions: read-out: Ratio IC50
Hepatitis C virus = test: Antiviral activity against HCV infected in human HuH7 clone B cells assessed as inhibition of viral RNA replication after 5 days by RT-PCR based replicon assay relative to control; format: functional, Hepacivirus hominis; conditions: Huh-7, 120 h
Mus musculus [11] = test: Toxicity in Plasmodium berghei infected mice (Mus musculus) assessed as dehydration at 10 mg/kg, perorally or subcutaneously QD on day 1; format: organism-based; set-up: dose 10 mg/kg, route oral; conditions: in vivo, po
Mus musculus [12] = test: Toxicity in Plasmodium berghei infected mice (Mus musculus) assessed as reduction of movements at 10 mg/kg, perorally or subcutaneously QD on day 1; format: organism-based; set-up: dose 10 mg/kg, route oral; conditions: in vivo, po
Mus musculus [13] = test: Toxicity in Plasmodium berghei infected mice (Mus musculus) assessed as mortality at 10 mg/kg, perorally or subcutaneously QD for 2 days measured on day 3; format: organism-based; set-up: dose 10 mg/kg, route oral; conditions: in vivo, po, 48 h
Mus musculus [14] = test: Toxicity in Plasmodium berghei infected mice (Mus musculus) at 10 mg/kg, perorally or subcutaneously QD for 2 days measured on day 2; format: organism-based; set-up: dose 10 mg/kg, route oral; conditions: in vivo, po, 48 h
Mus musculus [15] = test: Toxicity in Plasmodium berghei infected mice (Mus musculus) assessed as loss of weight at 10 mg/kg, perorally or subcutaneously QD for 2 days measured on day 5; format: organism-based; set-up: dose 10 mg/kg, route oral; conditions: in vivo, po, 48 h
Mus musculus [16] = test: Toxicity in Plasmodium berghei infected mice (Mus musculus) at 10 mg/kg, perorally or subcutaneously QD for 2 days measured on day 5; format: organism-based; set-up: dose 10 mg/kg, route oral; conditions: in vivo, po, 48 h
Plasmodium berghei = test: Antimalarial activity against Plasmodium berghei infected in mice (Mus musculus) assessed as parasitaemia at 10 mg/kg, perorally or subcutaneously administered 2 hrs post infection daily for 2 days measured on day 5 by microscopy; format: functional; conditions: route oral
[17] = Mycobacterium intracellulare, 96 h
[18] = Mycobacterium intracellulare, 96 h, read-out: IC50

Row | Compound | IC50 (Staphylococcus aureus) [µM] | MIC (Staphylococcus aureus) [µM] | MIC [1, 17] [µM] | Activity (Mus musculus [4]) | IC50 (Plasmodium falciparum [5]) [µM] | IC50 (Vero) [µM] | selectivity ratio [6] | MIC [7] [µM] | IC50 (Plasmodium falciparum [8]) [µM] | Activity [9] | selectivity ratio [10] | EC90 (Hepatitis C virus) [µM] | IC50 [1, 18] [µM] | further results
1 | O=C(O)c1cn(C2CC2)c2cc(N3CCNCC3)c(F)cc2c1=O [CIPROFLOXACIN] | 1.1 | 3 (≈ 0.994 µg/mL) | 1.5 (≈ 0.497 µg/mL) | – | – | – | – | – | – | – | – | – | – | –
2 | O=C1C2=C(C3=NCCc4c[nH]c1c43)C1(C=C(Br)C(O)C(Br)=C1)CCN2 (configuration not stated) [DIHYDRODISCORHABDIN C] | 13 | – | – | Non-toxic | 0.17 | 9.8 | 58 | 14 (≈ 6.51 µg/mL) | 0.13 | Active | 75 | < 10 | – | Activity (Mus musculus [2]): Toxic; Activity (Mus musculus [3]): Toxic; IC50 [1]: Not Active; MIC [1]: inactive; Activity (Mus musculus [11]): Toxic; Activity (Mus musculus [12]): Toxic; Activity (Mus musculus [13]): Toxic
3 | O=C1C(Br)=CC2(C=C1Br)CCNC1=C2C2=NCCc3c[nH]c(c32)C1=O [DISCORHABDIN C] | 3.2 | 11 (≈ 5.09 µg/mL) | 0.17 (≈ 0.0787 µg/mL) | – | 2.8 | 2.8 | 1 | 8 (≈ 3.71 µg/mL) | 2 | Active | 1.4 | < 10 | 0.13 | IC50 [7]: 6.8 µM
4 | O=C1C[C@H]2S[C@H]3C[C@]2(C=C1Br)C1=C(N3)C(=O)c2[nH]cc3c2C1=NCC3 [DISCORHABDINE A] | 4.8 | 12 (≈ 5 µg/mL) | 0.74 (≈ 0.308 µg/mL) | Non-toxic | 0.053 | 6.8 | 130 | 7.7 (≈ 3.21 µg/mL) | 0.053 | Active | 130 | < 10 | 0.36 | Activity (Mus musculus [14]): Toxic; Activity (Mus musculus [15]): > 25%; Activity (Mus musculus [16]): Toxic; Activity (Plasmodium berghei): 6.6%
5 | NNC(=O)c1ccncc1 [ISONIAZID] | – | – | – | – | – | – | – | 3.2 (≈ 0.439 µg/mL) | – | – | – | – | – | –
6 | CO[C@H]1/C=C/O[C@@]2(C)Oc3c(C)c(O)c4c(O)c(c(/C=N/N5CCN(C)CC5)c(O)c4c3C2=O)NC(=O)/C(C)=C\C=C\[C@H](C)[C@H](O)[C@@H](C)[C@@H](O)[C@@H](C)[C@H](OC(C)=O)[C@@H]1C [RIFAMPIN] | – | – | – | – | – | – | – | 0.21 (≈ 0.173 µg/mL) | – | – | – | – | – | –
